Experimental findings from patent US20080063643A1, “Peptide Derived From Hepatitis C Virus” (priority 2003, published 2008) are described below.

This test concerns peptide-specific IgG in the serum. Description: ELISA of peptide-specific IgG in sera of HCV patients and healthy donors (Example 1). Particulars: ELISA, cut-off value 1.83; for Healthy donors (n = 10) Positive n: number of 10 healthy donors with serum IgG reactive to the peptide; for HCV patients (n = 12) Positive n: number of 12 HCV patients with serum IgG reactive to the peptide; for Healthy donors (n = 10) Positive %: share of 10 healthy donors with serum IgG reactive to the peptide; for HCV patients (n = 12) Positive %: share of 12 HCV patients with serum IgG reactive to the peptide. The class given is binding, human. The method, then:
Synthetic peptides having an HLA-A2-binding motif or an HLA-A24-binding motif from a conserved region of HCV genotype 1b protein were used in this study (Table 1). A peptide derived from HIV having an HLA-A2-binding motif was used as a negative control. All of these peptides were purchased from a commercially supplier. The purity was analyzed by reverse-phase high-pressure liquid chromatography and found to be 90% or higher.
The level of the peptide-specific IgG in the serum was measured by ELISA. First, each peptide was dissolved in dimethyl sulfoxide (DMSO) and stored at −80° C. The peptide was diluted with 0.1 M sodium carbonate/sodium bicarbonate solution containing disuccinimidyl suberate (DSS) as a crosslinker. An ELISA plate was coated with 20 μg/well of peptide at 4° C. overnight. The wells were washed 3 times with 0.05% Tween 20/PBS (PBST), and the plate was blocked with Block Ace (registered trademark) and left overnight at 4° C. Plasma or serum samples were diluted in 1:100, 1:200 and 1:400 with 0.05% Tween 20/Block Ace, and 100 μl of each of the samples was added to each well. After the samples were incubated at 37° C. for 2 hours, the plate was washed 9 times with PBST, 100 μl of a 1:1000 diluted rabbit anti-human IgG (γ-chain specific) was added to each well, and incubated at 37° C. for 2 hours. The plate was washed 9 times with PBST, and 100 μl of 1:100 diluted mouse anti-rabbit IgG conjugated to a horseradish peroxidase-dextran polymer was added to each well, and then the plate was incubated at room temperature for 40 minutes. After the plate was washed, 100 μl of a tetramethylbenzidine substrate solution was added to each well. The reaction was stopped by the addition of 2.0 M phosphoric acid. The cutoff value was calculated as the mean±3 SD of the optical density values of the control obtained from the healthy donors.
The level of IgG that reacts with each of the 62 types of peptides was measured in the sera from 12 patients infected with HCV and 10 healthy donors (HDs) (Table 1).
A general note: In an ELISA, binding on a coated surface is turned into a signal by an enzyme label.

For “3 (RYAPACKPL; Hepatitis C Virus) [Peptide 3]”, the “Healthy donors (n = 10) Positive n” value amounted to 1, the “HCV patients (n = 12) Positive n” value was determined as 12, the “Healthy donors (n = 10) Positive %” value came out at 10% and the “HCV patients (n = 12) Positive %” value is recorded as 100%.
“5 (HYAPRPCGI; Hepatitis C Virus) [Peptide 5]”: the “Healthy donors (n = 10) Positive n” value is on record as 0, the “HCV patients (n = 12) Positive n” value stood at 0, the “Healthy donors (n = 10) Positive %” value is recorded as 0% and the “HCV patients (n = 12) Positive %” value is 0%.
As to “6 (HYPCTVNFTI; Hepatitis C Virus) [Peptide 6]”, the “Healthy donors (n = 10) Positive n” value was determined as 0, the “HCV patients (n = 12) Positive n” value is given as 0, the “Healthy donors (n = 10) Positive %” value was found to be 0% and the “HCV patients (n = 12) Positive %” value came to 0%.
“8 (SFAIKWEYVL; Hepatitis C Virus) [Peptide 8]”: the “Healthy donors (n = 10) Positive n” value is 0, the “HCV patients (n = 12) Positive n” value was determined as 0, the “Healthy donors (n = 10) Positive %” value is 0% and the “HCV patients (n = 12) Positive %” value is 0%.
As for “9 (EYVLLLFLL; Hepatitis C Virus) [Peptide 9]”, the “Healthy donors (n = 10) Positive n” value is given as 0, the “HCV patients (n = 12) Positive n” value was 0, the “Healthy donors (n = 10) Positive %” value stood at 0% and the “HCV patients (n = 12) Positive %” value was found to be 0%.
In the case of “10 (AYALYGVWPL; Hepatitis C Virus) [Peptide 10]”, the “Healthy donors (n = 10) Positive n” value is reported as 0, the “HCV patients (n = 12) Positive n” value stood at 1, the “Healthy donors (n = 10) Positive %” value is 0% and the “HCV patients (n = 12) Positive %” value is on record as 8%.
The like results for “11 (AYMSKAHGI; Hepatitis C Virus) [Peptide 11]” were, in that order, 0, 6, 0% and 50%.
The like results for “12 (HYAPRPCGI; Hepatitis C Virus) [Peptide 12]” were, in that order, 0, 9, 0% and 75%.
Turning to “13 (VYEAADMIM; Hepatitis C Virus) [Peptide 13]”, the “Healthy donors (n = 10) Positive n” value came out at 0, the “HCV patients (n = 12) Positive n” value is 6, the “Healthy donors (n = 10) Positive %” value is recorded as 0% and the “HCV patients (n = 12) Positive %” value is on record as 50%.
The corresponding values for “15 (LFLARLIWWL; Hepatitis C Virus) [Peptide 15]” are 0, 0, 0% and 0%.
In the case of “17 (QFKQKAIGL; Hepatitis C Virus) [Peptide 17]”, the “Healthy donors (n = 10) Positive n” value turned out to be 0, the “HCV patients (n = 12) Positive n” value was 3, the “Healthy donors (n = 10) Positive %” value is listed as 0% and the “HCV patients (n = 12) Positive %” value amounted to 25%.
The like results for “19 (HYVQMALMKL; Hepatitis C Virus) [Peptide 19]” were, in that order, 0, 1, 0% and 8%.
The like results for “20 (TYVYDHLTPL; Hepatitis C Virus) [Peptide 20]” were, in that order, 0, 0, 0% and 0%.
The corresponding values for “21 (HYVQMALMKL; Hepatitis C Virus) [Peptide 21]” are 0, 5, 0% and 42%.
Take “22 (TYVYDHLTPL; Hepatitis C Virus) [Peptide 22]”: the “Healthy donors (n = 10) Positive n” value was 0, the “HCV patients (n = 12) Positive n” value worked out at 7, the “Healthy donors (n = 10) Positive %” value is on record as 0% and the “HCV patients (n = 12) Positive %” value is listed as 58%.
